Where “and” joins values, the source holds several entries; their conditions need not be identical. Identical values can stand only once. Like-named read-outs stand apart in the source and are kept apart here.
Tested on: SARS-CoV-2 pseudoviruses carrying spike mutations of B.1.1.7 UK, B.1.351 RSA and B.1.617.2 India (Delta) variants
Format: cell-based

SMILES	antiviral activity against mutant pseudoviruses (in words)	IC50 (read-out: IC50)	IC50 (read-out: IC50 in the range for all the pseudovirus variants) [nM]	IC50 (read-out: IC50 against B.1.617.2 Delta single, double and triple mutant variants) [nM]
O=C(O)c1cc(-c2ccc(/C=C3\SC(=S)N(CCc4ccccc4)C3=O)o2)ccc1Cl [Compound 1, (Z)-2-Chloro-5-(5-((4-oxo-3-phenethyl-2-thioxothiazolidin-5-ylidene)methyl)furan-2-yl)benzoic acid]	potent antiviral activity against all mutant pseudoviruses	57 nM and 33 nM		
O=C(O)c1cccc(-c2ccc(/C=C3\SC(=S)N(CCc4ccccc4)C3=O)o2)c1 [Compound 2]	highly potent inhibitor against all mutant pseudoviruses		35 to 88.7	
O=C(O)c1cc(-c2ccc(/C=C3\SC(=S)N(CCc4ccccc4)C3=O)o2)ccc1F [Compound 3]	slightly less efficient against all the pseudoviruses tested	232 ± 17 nM		
Cc1ccc(-c2ccc(/C=C3\SC(=S)N(CCc4ccccc4)C3=O)o2)cc1C(=O)O [Compound 4]				148 to 239
Cc1c(C(=O)O)cccc1-c1ccc(/C=C2\SC(=S)N(CCc3ccccc3)C2=O)o1 [Compound 5]	poor/no activity	> 2000 nM and 1730 nM and 1850 nM and 1720 nM		
